From publication PMC10223284, “Category-Based Toxicokinetic Evaluations of Data-Poor Per- and Polyfluoroalkyl Substances (PFAS) using Gas Chromatography Coupled with Mass Spectrometry” (Toxics, 2023)
Values joined by “and” are separate entries in the source; they are usually repeats but may differ in a detail not shown here. Equal values may be shown once.

Legend:
[1] = Abiotic loss in negative controls of the hepatocyte clearance assay (cell-free media, metabolically inactivated hepatocytes); type: in vitro ADME; conditions: flag for stability failure in hepatocyte clearance assay controls (1 or Fst = fail, 0 = pass)
Protocol: The hepatic metabolic stability assay measures the loss of a parent compound over time in a substrate-depletion approach. Briefly, hepatocyte suspensions, after a viability assessment, were diluted in complete William’s medium E (containing dexamethasone and cell maintenance cocktail B) prior to addition to 96-well polypropylene plates containing an equal volume of media spiked with the test compound (1 μM assay concentration; assay cell density = 50,000 cells/100 μL) and maintained at 37 °C with shaking. At each time point, relevant plates were crashed with an equal volume of ice-cold acetonitrile, centrifuged, and supernatant transferred to a new plate prior to storage at <−70 °C until quantitative analysis. Controls, run in parallel, included cell-free (i.e., media only) and metabolically inactivated hepatocytes to evaluate abiotic chemical stability in the aqueous media matrix with and without cellular protein. In preliminary runs, these controls were run at T0 and T240 only. If significant instability was noted, the hepatocyte clearance assay was rerun, including cell-free samples at each time point and metabolically inactivated hepatocytes at selected time points.
Negative controls, including media only and metabolically inactivated hepatocyte controls, were included to monitor abiotic loss (i.e., background clearance) during the assay. Where significant compound loss occurred using the analysis described above, background clearance rates were calculated and used to background-adjust hepatic metabolic clearance rates. Where chemicals were cleared prior to the end of the analysis, at 240 min (T240), the corresponding negative control timepoint was used for background subtraction. Any chemicals displaying a 50% or more abiotic loss at T120 were deemed unstable and were excluded from further analyses.

[2] = system: human plasma; experiment: Chemical stability in plasma over the UC assay time course (T5hr/T1hr); conditions: for Time 1 hr / Time 1 hr, Run-specific Avg: amount measured in plasma sample at 1 hr; for Time 1 hr / Time 5 hr: replicates A, B, C; for Time 1 hr / Time 1 hr, Run-specific Avg / Time 5 hr / Time 5 hr, Run-specific Avg: unit not given; for Time 1 hr, Run-specific Avg / Time 5 hr, Run-specific Avg: run average; for Time 5 hr / Time 5 hr, Run-specific Avg: amount measured in plasma sample at 5 hr; for PPB_Stab_Fail: flag for stability failure in the plasma protein binding assay (1 = fail, 0 = pass); for Fstable.Med: median fraction stable in plasma, UC assay Level4; for Stability (T5hr/ T1hr), replicates A, B, C: single replicate of one UC run; for % remaining_PPB: chemical remaining in plasma over the PPB assay time course, NS = no significant loss
[3] = system: human plasma; experiment: Ultracentrifugation (UC) plasma protein binding assay, fraction unbound in plasma (fup); conditions: for Aqueous Fraction / Aqueous Fraction, Run-specific Avg: amount measured in aqueous fraction after ultracentrifugation, unit not given; for Aqueous Fraction: replicates A, B, C; for Aqueous Fraction, Run-specific Avg: run average; for Mean fu: fraction unbound in human plasma, ultracentrifugation, some values based on eLOQ; for Fup.Med: median fraction unbound in plasma; for Fup.Med / Fup.point: UC assay Level4; for Fup.point: point estimate of fraction unbound in plasma; for Fraction Unbound (fu), replicates A, B, C: single replicate of one UC run (aqueous fraction / Time 5 hr)
[4] = average of one UC run (run date in line above)
[5] = mean T5hr/T1hr ratio in plasma over all replicates/runs
[6] = mean T5hr/T1hr ratio over all replicates and runs, plasma
[7] = mean fraction unbound in human plasma over all UC replicates/runs

| Structure (SMILES) | Hep_Stab_Fail [1] | Time 1 hr [2] | Time 1 hr, Run-specific Avg [2] | Time 5 hr [2] | Time 5 hr, Run-specific Avg [2] | Stability (T5hr/ T1hr), Run-specific Avg ([2]; average of one UC run) | PPB_Stab_Fail [2] | Mean Stability [2, 5] | Fstable.Med [2] | Aqueous Fraction [3] | Aqueous Fraction, Run-specific Avg [3] | Mean fu [3] | Fup.Med [3] | Fup.point [3] | % remaining_PPB [2] [%] | Fraction Unbound (fu), Run-specific Avg ([3]; average of one UC run) | further results |
| --- | --- | --- | --- | --- | --- | --- | --- | --- | --- | --- | --- | --- | --- | --- | --- | --- | --- |
| FC(F)(F)C(F)(F)C(F)(F)C(F)(F)CCI [1H,1H,2H,2H-Perfluorohexyl iodide] | 1 | 4814.29 and 5234.67 and 5102.52 | 5050.49 | 2541.5 and 2572.68 and 2719.11 | 2557.09 | 0.506 | 0 | 0.517 | 0.99 | 429.404 and 197.254 and 248.159 | 291.61 | 0.0980 | 0.0824 | 0.0905 |  |  | Stability (T5hr/ T1hr), Run-specific Avg [2, 4]: 0.871; Mean Stability [2, 6]: 0.928; Stability (T5hr/ T1hr), replicates A, B, C [2]: 1.126 and 0.894 and 0.765; Fraction Unbound (fu), Run-specific Avg [3, 4]: 0.10; Fraction Unbound (fu), replicates A, B, C [3]: 0.08012 and 0.1098 and 0.1042 |
| C=CC(=O)OCC(F)(F)C(F)(F)C(F)(F)COC(=O)C=C [1H,1H,5H,5H-Perfluoro-1,5-pentanediol diacrylate] | 1 |  |  |  |  |  | 1 |  | 0.00466 |  |  |  | 7.62E-09 | 0.177 | 0 |  |  |
| FC(F)(F)C(F)(F)CNCC(F)(F)C(F)(F)F [Bis(1H,1H-perfluoropropyl)amine] |  | 11322.6 and 13421.7 and 13036.1 | 12593.46 | 11284.3 and 10114.7 and 8561.71 | 10699.45 | 0.850 | 0 | 0.799 | 0.999 | 403.75 and 491.531 and 501.978 | 465.75 | 0.0477 | 0.0412 | 0.0433 |  | 0.05 | Mean Fu [3, 7]: 0.048 |
| FC(F)(F)C(F)(F)C(F)(F)C(F)(F)C(F)(F)C(F)(F)CCS [DTXSID20379947] |  |  |  |  |  |  | 1 |  |  |  |  |  |  |  | 0 |  |  |
| OCCC(F)(F)C(F)(F)C(F)(F)C(F)(F)C(F)(F)C(F)(F)F [6:2 Fluorotelomer alcohol] | 1 | 10242.5 and 11181.9 and 10094.7 | 10506.38 | 8145.88 and 10628.7 and 9411.26 | 9387.28 | 0.893 | 0 | 0.895 | 0.205 | 219.897 and 3328.34 and 176.612 | 1241.62 |  | 0.232 | 0.152 | 100 | 0.0229 |  |
| FC(F)(F)C(F)(F)C(F)(F)CC1CO1 (centres unmarked) [1H,1H-Heptafluorobutyl epoxide] | 1 |  |  |  |  |  | 1 |  |  |  |  |  |  |  | 0 |  |  |
| C=C(C)C(=O)OCCC(F)(F)C(F)(F)C(F)(F)C(F)(F)C(F)(F)C(F)(F)F [6:2 Fluorotelomer methacrylate] |  |  |  |  |  |  | 0 |  | 0.0566 |  |  | 0.21 | 0.102 | 0.0856 | 54 |  |  |
| C=CC(=O)OCCC(F)(F)C(F)(F)C(F)(F)C(F)(F)F [2-(Perfluorobutyl)ethyl acrylate] | 1 |  |  |  |  |  | 1 |  | 0.000485 |  |  |  | 2.26E-06 | 0.078 | 0 |  |  |
| OCC(F)(F)C(F)(F)C(F)(F)C(F)(F)C(F)(F)C(F)F | 1 |  |  |  |  |  | 0 |  | 0.222 |  |  | 0.0537 | 0.0526 | 0.0549 |  |  | Stability (T5hr/ T1hr), Run-specific Avg [2, 4]: 0.870; Mean Stability [2, 6]: 0.875; Stability (T5hr/ T1hr), replicates A, B, C [2]: 0.819 and 1.002 and 0.803; Mean Fu ([3]; mean fraction unbound over all replicates and runs, UC assay, human plasma): 0.054; Fraction Unbound (fu), replicates A, B, C [3]: 0.052 and 0.046 and 0.064 |
| CC(C)(C)C(=O)CC(=O)C(F)(F)C(F)(F)C(F)(F)F [(Heptafluorobutanoyl)pivaloylmethane] | 1 |  |  |  |  |  |  |  |  |  |  |  |  |  |  |  |  |
| OCCCC(F)(F)C(F)(F)C(F)(F)C(F)(F)C(F)(F)C(F)(F)C(F)(F)F [7:3 Fluorotelomer alcohol] | 1 |  |  |  |  |  | 0 |  |  |  |  | 0.0230 |  |  |  |  |  |
| NCC(F)(F)C(F)(F)C(F)(F)C(F)(F)C(F)(F)C(F)(F)C(F)(F)F [1H,1H-Perfluorooctylamine] | Fst | 5598.62 and 5535.59 and 4647.69 | 5260.63 | 3087.52 and 3094.29 and 2839.44 | 3090.91 | 0.588 | 0 | 0.577 | 0.0977 | 245.64 and 173.583 and 303.476 | 240.90 | 0.105 | 0.605 | 0.345 | 58 | 0.08 | Mean Fu [3, 7]: 0.081 |
| CO[Si](C)(CCC(F)(F)C(F)(F)C(F)(F)C(F)(F)C(F)(F)C(F)(F)F)OC [DTXSID40235137] | 1 |  |  |  |  |  | 1 |  |  |  |  |  |  |  | 0 |  |  |
| NCC(F)(F)C(F)(F)C(F)(F)C(F)(F)C(F)(F)C(F)(F)F [1H,1H-Perfluoroheptylamine] |  | 7913.09 and 7505.36 and 6518.71 | 7312.39 | 3934.26 and 4036.14 and 3821.62 | 3985.20 | 0.545 | 0 | 0.541 | 0.0946 | 488.915 and 403.165 and 617.709 | 503.26 | 0.129 | 0.129 | 0.121 | 54 | 0.13 |  |
| C=CC(=O)OCC(F)(F)C(F)(F)C(F)(F)C(F)(F)COC(=O)C=C [DTXSID80379721] | 1 |  |  |  |  |  | 1 |  |  |  |  |  |  |  | 0 |  |  |
| OCCC(F)(F)C(F)(F)C(F)(F)C(F)(F)C(F)(F)C(F)(F)C(F)(F)C(F)(F)F [8:2 Fluorotelomer alcohol] |  | 10349.3 (2×) and 9635.91 | 10111.53 | 7909.09 and 8525.8 and 8231.76 | 8217.44 | 0.813 | 0 | 0.814 | 0.162 | 192.869 and 61.5201 and 158.809 | 137.73 | 0.0170 | 0.0168 | 0.0243 | 100 | 0.017 |  |
| NCC(F)(F)C(F)(F)C(F)(F)C(F)(F)C(F)(F)C(F)(F)C(F)(F)C(F)(F)F [1H,1H-Perfluorononylamine] |  | 12346.8 and 12130.3 and 11151.5 | 11876.18 | 7604.95 and 6828.46 and 6766.48 | 7216.71 | 0.608 | 0 | 0.598 | 0.177 | 414.774 and 241.353 and 265.963 | 307.36 | 0.043 | 0.0402 | 0.0359 | 60 | 0.0431 |  |
| OCC(F)(F)OC(F)(F)C(F)(F)OC(F)(F)C(F)(F)OC(F)(F)F [Fluorinated triethylene glycol monomethyl ether] | 1 |  |  |  |  |  | 1 |  |  |  |  |  |  |  | 0 |  |  |
| C=CC(=O)OCC(F)(F)C(F)(F)C(F)(F)C(F)(F)C(F)(F)C(F)(F)C(F)(F)F [1H,1H-Perfluorooctyl acrylate] | 1 |  |  |  |  |  | 1 |  |  |  |  |  |  |  | 6 |  |  |
| CC(O)C(F)(F)C(F)(F)F (centres unmarked) [DTXSID70880134] | 1 |  |  |  |  |  | 1 |  |  |  |  |  |  |  | 0 |  |  |
